From patent US20090214507A1, “METHOD OF TREATING PREVENTING, INHIBITING OR REDUCING DAMAGE TO CARDIAC TISSUE” (RegeneRx Biopharmaceuticals, Inc., priority 2004, published 2009)

What was measured:
[1] = tested on: cardiac endothelial cells; assay: collagen gel assay, transformation of cardiac endothelial cells to mesenchymal cells; format: cell-based; conditions: Tβ4 at physiological concentrations
Description: Synthetic Tβ4 and an antibody to Tβ4 was provided by RegeneRx Biopharmaceuticals, Inc. (3 Bethesda Metro Center, Suite 700, Bethesda, Md. 20814) and were tested in a collagen gel assay to determine their effects on the Transformation of cardiac endothelial cells to mesenchymal cells. It is well established that development of heart valves and other cardiac tissue are formed by epithelial-mesenchymal transformation and that defects in this process can cause serious cardiovascular malformation and injury during development and throughout life. […] Transformation of atrioventricular endocardium into invasive mesenchyme is an aspect of the formation and maintenance of normal cardiac tissue and in the formation of heart valves.

embryonic heart explants = assay: embryonic heart explant collagen gel migration assay; format: cell-based, mouse
Description: To test the effects of secreted thymosin β4 on cardiac cell migration, an embryonic heart explant system designed to assay cell migration and transformation events on a three-dimensional collagen gel was utilized. In this assay, explants of adjacent embryonic myocardium and endocardium from valve-forming regions were placed on a collagen gel with the endocardium adjacent to the collagen.
(§1) To test the response of post-natal cardiomyocytes, primary rat neonatal cardiomyocytes were cultured on laminin-coated glass and treated the cells with phosphate buffered saline (PBS) or thymosin β4.
To determine if activation of ILK was necessary for the observed effects of thymosin β4, a well-described ILK inhibitor, wortmannin, was employed, which inhibits ILK's upstream kinase, phosphatidylinositol 3-kinase (PI3-kinase). Using myocardial cell migration and beating frequency as assays for thymosin β4 activity, embryonic heart explants were cultured as described above in the presence of thymosin β4 with or without wortmannin.
Outflow tract was dissected from E11.5 wild type mouse embryos and placed on collagen matrices as previously described. After 10 hours of attachment explants were incubated in 30 ng/300 μl thymosin β4 in PBS, PBS alone or thymosin β4 and 100 nM wortmannin. Cultures were carried out for 3-9 days at 37° C. 5% CO2 and fixed in 4% paraformaldehyde in PBS for 10 min at RT. Cells were counted for quantification of migration and distance using at least three separate explants under each condition for endothelial migration and eight separate explants for myocardial migration.
Paraformaldehyde-fixed explants were permeabilized for 10 min at RT with Permeabilize solution (10 mM PIPES pH6.8; 50 mMNaC1; 0.5% Triton X-100; 300 mM Sucrose; 3 mM MgC12) and rinsed with PBS 2×5 min at RT. After a series of blocking and rinsing steps, detection antibodies were used and explants rinsed and incubated with Equilibration buffer (Anti-Fade kit) 10 min at room temperature. Explants were scooped to a glass microscope slide, covered, and examined by fluorescein microscopy. TUNEL assay was performed using ApopTag Plus Fluorescein In Situ Apoptosis detection kit (Intergen Company #S7111) as recommended.

[2] = tested on: primary rat neonatal cardiomyocytes; assay: primary neonatal cardiomyocyte culture on laminin-coated glass; format: cell-based
Description: as §1
Primary culture of neonatal cardiomyocytes typically survived for approximately one to two weeks with some cells beating up to two weeks when grown on laminin-coated slides in our laboratory. […] In addition, the rate of beating was consistently faster in thymosin β4-treated neonatal cardiomyocytes (95 vs. 50 beats per minute, p<0.02), indicating either a change in cell-cell communication or more vigorous cardiomyocytes.

ILK / Akt [3] = assay: ILK localization, expression and activation (immunocytochemistry, Western); format: cell-based
Description: Because recruitment of ILK to the focal adhesion complex is important for its activation, the effects of thymosin β4 on ILK localization and expression were assayed. […] Because thymosin β4 sequesters the pool of G-actin monomers, the effects on ILK activation were dependent on thymosin β4's role in regulating the balance between polymerized F-actin and monomeric G-actin were tested.

PINCH = biological target: T1, PINCH (Mus musculus, UniProt Q99JW4); assay: phage display ELISA and coimmunoprecipitation with PINCH; format: binding; conditions: ELISA; coimmunoprecipitation in transfected cultured cells
T1 construct: made in house; host or cells: T7 phage amplified in E. coli BLT5615
Source text: (§2) To investigate the potential mechanisms through which thymosin β4 might be influencing cell migration and survival events, thymosin β4 interacting proteins were searched. The amino-terminus of thymosin β4 was fused with affi-gel beads resulting in exposure of the carboxy-terminus that allowed identification of previously unknown interacting proteins but prohibited association with actin. An E9.5-12.5 mouse heart T7 phage cDNA library was synthesized and screened by phage display and thymosin β4-interacting clones were enriched and confirmed by ELISA. […] PINCH and integrin linked kinase (ILK) interact directly with one another and indirectly with the actin cytoskeleton as part of a larger complex involved in cell-extracellular matrix interactions known as the focal adhesion complex. PINCH and ILK are required for cell motility and for cell survival, in part by promoting phosphorylation of the serine-threonine kinase Akt/protein kinase B, a central kinase in survival and growth signaling pathways. […] The PINCH interaction with thymosin β4 mapped to the fourth and fifth LIM domains of PINCH while the amino terminal ankryin domain of ILK was sufficient for thymosin β4 interaction.
300 ul of Affi-Gel 15 (Bio-Rad Laboratories) was coupled with 12 ug of synthesized thymosin β4 protein (RegeneRx) following the manufacturers manual, likely via amino terminal lysine residues. […]

[4] = biological target: T2, integrin linked kinase (ILK) (Homo sapiens, UniProt Q13418); assay: coimmunoprecipitation with ILK; format: binding; conditions: coimmunoprecipitation in transfected cultured cells
T2 construct: expressed in transfected cells; host or cells: Cos and 10T1/2 cells
T2 sequence (Q13418 1-452): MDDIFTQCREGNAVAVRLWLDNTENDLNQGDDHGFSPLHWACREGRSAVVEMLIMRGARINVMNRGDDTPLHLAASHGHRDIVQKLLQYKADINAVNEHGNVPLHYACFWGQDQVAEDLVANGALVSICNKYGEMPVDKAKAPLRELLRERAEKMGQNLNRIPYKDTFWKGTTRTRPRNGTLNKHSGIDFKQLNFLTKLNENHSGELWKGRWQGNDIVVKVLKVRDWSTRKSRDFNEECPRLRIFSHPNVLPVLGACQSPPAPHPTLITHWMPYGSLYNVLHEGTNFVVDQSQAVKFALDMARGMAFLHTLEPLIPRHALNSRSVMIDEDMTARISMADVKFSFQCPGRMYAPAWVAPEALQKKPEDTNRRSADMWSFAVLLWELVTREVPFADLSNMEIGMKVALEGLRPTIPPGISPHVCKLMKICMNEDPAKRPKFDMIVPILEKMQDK
Source text: as §2
Cos and 10 T1/2 cells were transfected with thymosin β4, PINCH and/or ILK and lysates precipitated with antibodies to each as previously described. […]

[5] = tested on: myocardial infarction in adult mice; assay: myocardial infarction by coronary artery ligation, echocardiography and histology; format: in vivo, mouse
Description: Because of thymosin β4's effects on survival and migration of cardiomyocytes cultured in vitro and phosphorylation of Akt, it was tested whether thymosin β4 might aid in cardiac repair in vivo after myocardial damage. Myocardial infarctions in fifty-eight adult mice were created by coronary artery ligation and treated half with systemic, intracardiac, or systemic plus intracardiac thymosin β4 immediately after ligation and the other half with PBS. Intracardiac injections were done with collagen (control) or collagen mixed with thymosin β4. All forty-five mice that survived two weeks later were interrogated for cardiac function by random-blind ultrasonography at 2 and 4 weeks after infarction by multiple measurements of cardiac contraction. […] Control cardiac injections were performed with the same collagen vehicle making it unlikely that an endogenous reaction to the injection contributed to the cardiac recovery.
To determine the manner in which […] improved cardiac function, multiple serial histologic sections of hearts treated with or without thymosin β4 were examined. […] TUNEL positive cells that were also myocytes were rare in the thymosin β4 group but abundant in the control hearts. […] Thus, the decreased scar volume and preserved function of thymosin β4 treated mice were likely due to early preservation of myocardium after infarction through thymosin β4's effects on survival of cardiomyocytes.
Embryonic or adult cardiac tissue was embedded in paraffin and sections used for immunohistochemistry. […] Adult hearts were sectioned at ten equivalent levels from the base of the heart to the apex. Serial sections were used for trichrome sections and reaction with sarcomeric a-actinin, c-kit, Sca-1, Abcg2, and BrdU antibodies and for TUNEL assay (Intergen Company #S7111).
(§3) Myocardial infarction was produced in fifty-eight male C57BL/6J mice at 16 weeks of age (25-30 g) by ligation of the left anterior descending coronary artery as previously described. Twenty-nine of the ligated mice received thymosin β4 treatment immediately following ligation and the remaining twenty-nine received PBS injections. Treatment was given intracardiac with thymosin β4 (200 ng in 10 ul collagen) or with 10 ul of collagen; intraperitoneally with thymosin β4 (150 μg in 300 μl PBS) or with […]; or by both intracardiac and intraperitoneal injections. Intraperitoneal injections were given every three days until mice were sacrificed. Doses were based on previous studies of thymosin β4 biodistribution. Hearts were removed, weighed and fixed for histologic sectioning. Additional mice were operated on in a similar fashion for studies 0.5, 1, 3, 6 and 11 days after ligation.
Echocardiograms to assess systolic function were performed using M-mode and 2-dimensional measurements as described previously. The measurements represented the average of six selected cardiac cycles from at least two separate scans performed in random-blind fashion with papillary muscles used as a point of reference for consistency in level of scan. End diastole was defined as the maximal left ventricle (LV) diastolic dimension and end systole was defined as the peak of posterior wall motion. Single outliers in each group were omitted for statistical analysis. Fractional shortening (FS), a surrogate of systolic function, was calculated from LV dimensions as follows: FS=EDD−ESD/EDD×100%. Ejection fraction (EF) was calculated from two-dimensional images. EDD, end diastolic dimension; ESD, end systolic dimension.
Scar volume was calculated using six sections through the heart of each mouse using Openlab 3.03 software (Improvision) similar to previously described. Percent area of collagen deposition was measured on each section in blinded fashion and averaged for each mouse.

ILK / Akt [6] = assay: western blot of heart lysates after coronary ligation; format: in vivo, mouse
Description: Because thymosin β4 upregulates ILK activity and Akt phosphorylation in cultured cells, the effects on these kinases in vivo were tested. […] Total Akt protein was not increased.
as §3

[7] = four weeks after infarction, versus control

T1 sequence (Q99JW4 whole entry): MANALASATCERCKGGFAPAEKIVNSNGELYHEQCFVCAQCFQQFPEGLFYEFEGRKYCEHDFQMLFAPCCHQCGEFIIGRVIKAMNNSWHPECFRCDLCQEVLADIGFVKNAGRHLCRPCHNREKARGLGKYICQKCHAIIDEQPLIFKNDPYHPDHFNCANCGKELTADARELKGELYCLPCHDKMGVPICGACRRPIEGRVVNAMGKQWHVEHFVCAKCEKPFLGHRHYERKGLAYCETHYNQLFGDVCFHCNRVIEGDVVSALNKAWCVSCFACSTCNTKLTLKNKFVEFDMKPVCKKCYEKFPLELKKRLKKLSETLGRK

Q: Which “transformation of endocardial cells to mesenchymal cells” value [1] does the source give for thymosin β4 here?
A: markedly enhances

Q: And the “number of migrating endothelial cells” value (embryonic heart explants; E11.5 explants, compared to PBS, p<0.01)?
A: increased number of migrating endothelial cells

Q: What about the “cell death (TUNEL assay) in migrated cells” value (embryonic heart explants; compared to control cells) of the same substance?
A: No significant difference

Q: What about the “proliferative rate (phosho-histone H3 immunostaining) in migrated cells” value (embryonic heart explants; compared to control cells) of the same substance?
A: No significant difference

Q: What about the “migration of myocardial cells away from the explant” value (embryonic heart explants; thymosin β4 added to primary explants on collagen gel) of the same substance?
A: a large number of spontaneously beating, cardiac muscle actin-positive cells had migrated away from the explant

Q: What about the “migrational distance of neonatal cardiomyocytes” value ([2]; compared to control, p<0.05) of the same substance?
A: significantly increased

Q: What about the “survival in culture, rhythmically contracting myocytes visible” value ([2]; control cultures survive approximately one to two weeks) of the same substance?
A: up to 28 days

Q: What about the rate of beating ([2]; vs. 50 in control, p<0.02) of the same substance?
A: 95 beats per minute

Q: And the “ILK protein levels (Western analysis)” value (ILK / Akt [3]; C2C12 cells)?
A: modest increase

Q: What about the “total Akt protein” value (ILK / Akt [3]; C2C12 cells) of the same substance?
A: unchanged

Q: What about the “phosphorylation of Akt (serine 473)” value (ILK / Akt [3]; C2C12 cells, phospho-specific antibody) of the same substance?
A: increased phosphorylation

Q: What about the “ILK detection by immunocytochemistry” value (ILK / Akt [3]; embryonic heart explants or C2C12 myoblasts, 10 ng/100 ul synthetic protein or expressing plasmid) of the same substance?
A: markedly enhanced around the cell edges

Q: What about the “interaction with PINCH” value (PINCH) of the same substance?
A: interacted with thymosin β4 in the absence of actin

Q: And the “interaction with ILK” value [4]?
A: weaker than with PINCH

Q: And the “cardiac dilation after infarction (EDD and ESD)” value ([5]; EDD and ESD significantly higher in control group)?
A: decreased cardiac dilation

Q: What about the mean ejection fraction ([5]; four weeks after infarction, n=23, 95% confidence interval, control 28.2) of the same substance?
A: 57.7+/−3.2%

Q: And the “mean left ventricle fractional shortening” value ([5]; four weeks after infarction, n=23, 95% confidence intervals, control 23.2)?
A: 37.2+/−1.8%

Q: And the “improvement in cardiac fractional shortening” value [5, 7]?
A: greater than 60%

Q: What about the “improvement in ejection fraction” value [5, 7] of the same substance?
A: > 100%

Q: What about the “degree of improvement, systemic (intraperitoneal) versus local intracardiac administration” value ([5]; mouse, in vivo, ip) of the same substance?
A: not statistically different

Q: What about the scar volume ([5]; six levels of sections through left ventricle, subset of mice, p<0.05) of the same substance?
A: significant reduction

Q: And the “left ventricle fractional shortening” value ([5]; three days after infarction, intracardiac treatment, n=4, 95% confidence interval, control 28.8)?
A: 39.2+/−2.34%

Q: And the ejection fraction ([5]; three days after infarction, intracardiac treatment, control 44.7)?
A: 64.2+/−6.69%

Q: And the “size of scar (trichrome stain)” value ([5]; three levels of section, all treated mice)?
A: reduced

Q: What about the “cardiomyocyte proliferation or death” value ([5]; three, six, eleven or fourteen days after coronary ligation) of the same substance?
A: did not detect significant cardiomyocyte proliferation or death

Q: And the “number of c-kit, Sca-1 or Abcg2 positive cardiomyocytes” value ([5]; treated versus untreated hearts)?
A: no detection of any differences

Q: What about the “cardiomyocyte cell death by TUNEL assay” value ([5]; twenty-four hours after ligation) of the same substance?
A: striking decrease in cell death

Q: What about the “total Akt protein” value (ILK / Akt [6]) of the same substance?
A: not increased

Q: What about the “level of ILK protein in heart lysates” value (ILK / Akt [6]; compared with PBS treated mice) of the same substance?
A: increased

Q: And the “amount of phosphorylated Akt-5473” value (ILK / Akt [6]; phospho-specific antibodies)?
A: elevation
